Structures are written as SMILES. A value given as a limit tells only on which side of the number the result lay.

In test [1] the target is T1, BRD4 Bromodomain 1 (BRD4 BD1) (Homo sapiens, UniProt O60885).
T1 construct: 44-168 and BRD4 BD2
Nature of the test: AlphaScreen binding assay, BRD4 BD1. To be noted: His-tagged BRD4 BD1 50 nM, biotinylated H4 (1-21) K5/8/12/16 tetra-acetylated peptide 50 nM, compounds listed under IC50 range headings. Summed up:
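An AlphaScreen competition format was used with His-BRD4 BD1 or BD2 and biotin-H4 K5/8/12/16-acetyl peptide, each at matched final levels of 50 nM (BD1) or 100 nM (BD2). Incubation in HEPES/NaCl buffer with 0.1% BSA and 0.01% Triton X-100 ran ≥1 h before IC50 determination.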
A general note: Alpha assays give light when donor and acceptor beads are brought close together.

The target of test [2] is T2, BRD4 Bromodomain 2 (BRD4 BD2) (Homo sapiens, UniProt O60885).
T2 construct: 333-460 were cloned, expressed, and purified to homogeneity
Nature of the test: AlphaScreen binding assay, BRD4 BD2. To be noted: His-tagged BRD4 BD2 100 nM, biotinylated H4 (1-21) K5/8/12/16 tetra-acetylated peptide 100 nM, compounds listed under IC50 range headings. As for the experimental part: The binding of Example compounds to BRD4 Bromodomain 1 and BRD4 Bromodomain 2 was assessed using 384-well AlphaScreen assay technology. His-epitope tagged BRD4 BD144-168 and BRD4 BD2333-460 were cloned, expressed, and purified to homogeneity. BRD4 BD1 and BRD4 BD2 binding and inhibition was assessed by monitoring the engagement of biotinylated Histone H4 (1-21) K5/8/12/16 tetra-acetylated peptide with the targets using the AlphaScreen technology (PerkinElmer). Specifically, in a 384-well black or white flat bottom plate, BRD4 BD1 (50 nM final) or BRD4 BD2 (100 nM final) was combined with peptide (50 nM final for BD1 or 100 nM final for BD2) in 50 mM HEPES (pH 7.3), 100 mM NaCl, 0.1% (w/v) BSA, and 0.01% (w/v) Triton X-100 either in the presence of DMSO (final 1.25% DMSO) or compound dilution series in DMSO. Alpha streptavidin donor beads and Nickel-chelate acceptor beads were added to a final concentration of 10 μg/ml each. After a minimum of 1 hour equilibration, plates were read on a BMG PHERAstar FS multi-label reader (BMG LabTech). The half maximal inhibitory concentration (IC50) values were calculated using IDBS Activity Base software with a four parameter logistic curve fit by the equation y=A+((B−A)/(1+((C/x)^D))), wherein A denotes the bottom plateau of the curve, B denotes the top plateau of the curve, C denotes the x value at the middle of the curve, D denotes the slope factor, x denotes the original known x values, and y denotes the original known y values. Data was fitted using the Levenburg Marquardt algorithm.

The term IC50 denotes the concentration needed to halve the response being measured. Low readings indicate inhibition by little substance, high ones a need for much substance. For the compound `COC(=O)N1c2ccc(-c3cnn(CCO)c3)c(OCC(=O)N(C)C)c2CC[C@@H]1C` [I-3, (S)-methyl 5-(2-(dimethylamino)-2-oxoethoxy)-6-(1-(2-hydroxyethyl)-1H-pyrazol-4-yl)-2-methyl-3,4-dihydroquinoline-1(2H)-carboxylate], the half-maximal inhibitory concentration (IC50) in test [1] was in the range of 1000 to 10000 nM; in test [2] it was 50 to 500 nM.

Consider `CCNC(=O)COc1c(-c2cnn(C3CC3)c2)ccc2c1CC[C@H](C)N2C(C)=O` [I-4, (S)-2-(1-acetyl-6-(1-cyclopropyl-1H-pyrazol-4-yl)-2-methyl-1,2,3,4-tetrahydroquinolin-5-yloxy)-N-ethylacetamide], for which the values for the concentration for half-maximal inhibition (IC50) in test [1] and in test [2] were 1000 to 10000 nM and 50 to 500 nM, respectively.

With `CC(=O)N1c2ccc(-c3cnn(C4CC4)c3)c(OCCF)c2CC[C@@H]1C` [I-5, (S)-1-(6-(1-cyclopropyl-1H-pyrazol-4-yl)-5-(2-fluoroethoxy)-2-methyl-3,4-dihydroquinolin-1(2H)-yl)ethanone], the IC50 in test [1] fell in the range of 1000 to 10000 nM; in test [2], 50 to 500 nM.

Regarding `CC(=O)N1c2ccc(-c3cnn(C4CC4)c3)c(OCC(=O)N(C)C3CC3)c2CC[C@@H]1C` [I-6, (S)-2-(1-acetyl-6-(1-cyclopropyl-1H-pyrazol-4-yl)-2-methyl-1,2,3,4-tetrahydroquinolin-5-yloxy)-N-cyclopropyl-N-methylacetamide], the IC50 in test [1] was 1000 to 10000 nM; in test [2], not below 500 nM.

Regarding `COC(=O)N1c2ccc(-c3cnn(C4CC4)c3)c(OCC(F)(F)F)c2CC[C@@H]1C` [I-9, (S)-methyl 6-(1-cyclopropyl-1H-pyrazol-4-yl)-2-methyl-5-(2,2,2-trifluoroethoxy)-3,4-dihydroquinoline-1(2H)-carboxylate], the 50% inhibitory concentration (IC50) in test [1] is not below 10000 nM; in test [2], not below 500 nM.

Take `COC(=O)N1c2ccc(-c3cnn(C4CC4)c3)c(OCC(F)F)c2CC[C@@H]1C` [I-10, (S)-methyl 6-(1-cyclopropyl-1H-pyrazol-4-yl)-5-(2,2-difluoroethoxy)-2-methyl-3,4-dihydroquinoline-1(2H)-carboxylate]: the IC50 in test [1] was in the range of 1000 to 10000 nM; in test [2], 50 to 500 nM.

For the compound `COC(=O)N1c2ccc(-c3cnn(C4CC4)c3)c(OCC(C)(F)F)c2CC[C@@H]1C` [I-12, (S)-methyl 6-(1-cyclopropyl-1H-pyrazol-4-yl)-5-(2,2-difluoropropoxy)-2-methyl-3,4-dihydroquinoline-1(2H)-carboxylate], the IC50 is not below 10000 nM in test [1] and not below 500 nM in test [2].

`COC(=O)N1c2ccc(-c3cnn(C4CC4)c3)c(OC(CF)CF)c2CC[C@@H]1C` [I-15, (S)-methyl 6-(1-cyclopropyl-1H-pyrazol-4-yl)-5-(1,3-difluoropropan-2-yloxy)-2-methyl-3,4-dihydroquinoline-1(2H)-carboxylate]: the IC50 in test [1] is 1000 to 10000 nM; in test [2] it was 50 to 500 nM.

In the case of `COC(=O)N1c2ccc(-c3cnn(C4CC4)c3)c(OCC(C)(C)F)c2CC[C@@H]1C` [I-16, (S)-methyl 6-(1-cyclopropyl-1H-pyrazol-4-yl)-5-(2-fluoro-2-methylpropoxy)-2-methyl-3,4-dihydroquinoline-1(2H)-carboxylate], the IC50 lay within 1000 to 10000 nM in test [1] and 50 to 500 nM in test [2].

In the case of `COC(=O)N1c2ccc(-c3cnn(C4CC4)c3)c(OC(C)(C)C(N)=O)c2CC[C@@H]1C` [I-18, (S)-methyl 5-(1-amino-2-methyl-1-oxopropan-2-yloxy)-6-(1-cyclopropyl-1H-pyrazol-4-yl)-2-methyl-3,4-dihydroquinoline-1(2H)-carboxylate], the IC50 fell in the range of 1000 to 10000 nM in test [1] and 50 to 500 nM in test [2].

Take `CCNC(=O)COc1c(-c2cnn(C3CC3)c2)ccc2c1CC[C@H](C)N2C(=O)OC` [I-21, (S)-methyl 6-(1-cyclopropyl-1H-pyrazol-4-yl)-5-(2-(ethylamino)-2-oxoethoxy)-2-methyl-3,4-dihydroquinoline-1(2H)-carboxylate]: the IC50 in test [1] is not below 10000 nM; in test [2], 50 to 500 nM.

For the compound `COC(=O)N1c2ccc(-c3cnn(C4CC4)c3)c(OCCN3CCCC3=O)c2CC[C@@H]1C` [I-25, (S)-methyl 6-(1-cyclopropyl-1H-pyrazol-4-yl)-2-methyl-5-(2-(2-oxopyrrolidin-1-yl)ethoxy)-3,4-dihydroquinoline-1(2H)-carboxylate], the half-maximal inhibitory concentration (IC50) in test [1] lay within 1000 to 10000 nM; in test [2], 50 to 500 nM.

With `COC(=O)N1c2ccc(-c3cnn(C4CC4)c3)c(OCC(=O)N3CCOCC3)c2CC[C@@H]1C` [I-26, (S)-methyl 6-(1-cyclopropyl-1H-pyrazol-4-yl)-2-methyl-5-(2-morpholino-2-oxoethoxy)-3,4-dihydroquinoline-1(2H)-carboxylate], the IC50 in test [1] lay in the range of 1000 to 10000 nM; in test [2] it was 50 to 500 nM.

Turning to `COC(=O)N1c2ccc(-c3cnn(C4CC4)c3)c(OCCN3CCCS3(=O)=O)c2CC[C@@H]1C` [I-27, methyl (2S)-6-(1-cyclopropyl-1H-pyrazol-4-yl)-5-[2-(1,1-dioxo-1λ^6,2-thiazolidin-2-yl)ethoxy]-2-methyl-1,2,3,4-tetrahydroquinoline-1-carboxylate], the figures for the IC50 in test [1] and in test [2] were 1000 to 10000 nM and less than 50 nM, respectively.

Regarding `COC(=O)N1c2ccc(-c3cnn(C4CC4)c3)c(OCS(N)(=O)=O)c2CC[C@@H]1C` [I-28, (S)-methyl 6-(1-cyclopropyl-1H-pyrazol-4-yl)-2-methyl-5-(sulfamoylmethoxy)-3,4-dihydroquinoline-1(2H)-carboxylate], the IC50 was 1000 to 10000 nM in test [1] and not below 500 nM in test [2].

For `COC(=O)N1c2ccc(-c3cnn(C4CC4)c3)c(OCC3(CO)COC3)c2CC[C@@H]1C` [I-32, (S)-methyl 6-(1-cyclopropyl-1H-pyrazol-4-yl)-5-((3-(hydroxymethyl)oxetan-3-yl)methoxy)-2-methyl-3,4-dihydroquinoline-1(2H)-carboxylate], the figures for the IC50 in test [1] and in test [2] were 1000 to 10000 nM and 50 to 500 nM, respectively.

In the case of `COC(=O)N1c2ccc(-c3cnn(C4CC4)c3)c(OC3CC(F)(F)C3)c2CC[C@@H]1C` [I-33, (S)-methyl 6-(1-cyclopropyl-1H-pyrazol-4-yl)-5-(3,3-difluorocyclobutoxy)-2-methyl-3,4-dihydroquinoline-1(2H)-carboxylate], the IC50 in test [1] is 1000 to 10000 nM; in test [2] it was not below 500 nM.

For `CC(=O)N1c2ccc(-c3cnn(C4CC4)c3)c(OCC(C)(F)F)c2CC[C@@H]1C` [I-37, (S)-1-(6-(1-cyclopropyl-1H-pyrazol-4-yl)-5-(2,2-difluoropropoxy)-2-methyl-3,4-dihydroquinolin-1(2H)-yl)ethanone], the values for the IC50 in test [1] and in test [2] were 1000 to 10000 nM and 50 to 500 nM, respectively.

Turning to `CC(=O)N1c2ccc(-c3cnn(C4CC4)c3)c(OC(CF)CF)c2CC[C@@H]1C` [I-38, (S)-1-(6-(1-cyclopropyl-1H-pyrazol-4-yl)-5-(1,3-difluoropropan-2-yloxy)-2-methyl-3,4-dihydroquinolin-1(2H)-yl)ethanone], the IC50 in test [1] was 1000 to 10000 nM; in test [2], 50 to 500 nM.

In the case of `CC(=O)N1c2ccc(-c3cnn(C4CC4)c3)c(OC(C)(C)C(N)=O)c2CC[C@@H]1C` [I-40, (S)-2-(1-acetyl-6-(1-cyclopropyl-1H-pyrazol-4-yl)-2-methyl-1,2,3,4-tetrahydroquinolin-5-yloxy)-2-methylpropanamide], the IC50 in test [1] was 1000 to 10000 nM; in test [2], 50 to 500 nM.

For the compound `CC(=O)N1c2ccc(-c3cnn(C4CC4)c3)c(OCCC(F)(F)F)c2CC[C@@H]1C` [I-41, (S)-1-(6-(1-cyclopropyl-1H-pyrazol-4-yl)-2-methyl-5-(3,3,3-trifluoropropoxy)-3,4-dihydroquinolin-1 (2H)-yl)ethanone], the IC50 in test [1] lay in the range of 1000 to 10000 nM; in test [2], 50 to 500 nM.

As for `CC(=O)N1c2ccc(-c3cnn(C4CC4)c3)c(OCS(N)(=O)=O)c2CC[C@@H]1C` [I-45, (S)-(1-acetyl-6-(1-cyclopropyl-1H-pyrazol-4-yl)-2-methyl-1,2,3,4-tetrahydroquinolin-5-yloxy)methanesulfonamide], the IC50 in test [1] was not below 10000 nM; in test [2], not below 500 nM.

`CC(=O)N1c2ccc(-c3cnn(C4CC4)c3)c(OCCC3COC3)c2CC[C@@H]1C` [I-47, (S)-1-(6-(1-cyclopropyl-1H-pyrazol-4-yl)-2-methyl-5-(2-(oxetan-3-yl)ethoxy)-3,4-dihydroquinolin-1(2H)-yl)ethanone]: the IC50 fell in the range of 1000 to 10000 nM in test [1] and 50 to 500 nM in test [2].

On to `CC(=O)N1c2ccc(-c3cnn(C4CC4)c3)c(OCC3CNC3)c2CC[C@@H]1C` [I-52, (S)-1-(5-(azetidin-3-ylmethoxy)-6-(1-cyclopropyl-1H-pyrazol-4-yl)-2-methyl-3,4-dihydroquinolin-1 (2H)-yl)ethanone], for which the IC50 was not below 10000 nM in test [1] and not below 500 nM in test [2].

The values above are taken from patent US10611750B2, “Tetrahydroquinoline compositions as bet bromodomain inhibitors” (FORMA Therapeutics, Inc., priority 2013, dated 2020).
